In ChEMBL document CHEMBL5252512, “Recent Progress in the Development of HIV-1 Protease Inhibitors for the Treatment of HIV/AIDS” (J Med Chem, 2016):
Values belong to the compound of their own block, whether it stands above or below them. Where a SMILES comes first, the peptide text is derived from it. Bridges are numbered along the chain shown (N, C = ends). Roman numbers before positions name the chains, in order. [ ]: non-standard residue; d: D form. The star is where a group is joined. ξ: configuration not given here. C16 diacid = O=C(O)CCCCCCCCCCCCCCC(=O)*; Phe(4-NH2) = Nc1ccc(C[C@H](N)C(=O)O)cc1; Ile(3ξ) = CCC(C)[C@H](N)C(=O)O; NHPhenethyl = c1ccc(CCN*)cc1

Key:
[1] = target: T1, Human immunodeficiency virus type 1 protease (Human immunodeficiency virus 1, UniProt Q72874); test: Binding affinity to HIV1 protease assessed as inhibition constant
[2] = target: T1, Human immunodeficiency virus type 1 protease; test: Binding affinity to wild-type HIV1 protease expressed in Escherichia coli by fluorometric assay
[3] = system: Human immunodeficiency virus 1; test: Ratio of EC50 for antiviral activity against HIV1-TM to EC50 for antiviral activity against wild type HIV1 ERS104pre; format: functional
[4] = system: Human immunodeficiency virus 1; test: Antiviral activity against multidrug-resistant HIV1-G infected in phytohemagglutinin-activated human PBMC cells assessed as inhibition of virus-induced cytopathic effect measured after 7 days by MTT assay; format: functional, organism-based; details: Human immunodeficiency virus 1, G, 168 h
[5] = system: Human immunodeficiency virus 1; test: Ratio of EC50 for antiviral activity against HIV1-B to EC50 for antiviral activity against wild type HIV1 ERS104pre; format: functional
[6] = system: Human immunodeficiency virus 1; test: Antiviral activity against multidrug-resistant HIV1-TM infected in phytohemagglutinin-activated human PBMC cells assessed as inhibition of virus-induced cytopathic effect measured after 7 days by MTT assay; format: functional, organism-based; details: Human immunodeficiency virus 1, TM, 168 h
[7] = system: Human immunodeficiency virus 1; test: Antiviral activity against darunavir-resistant HIV1 10P infected in phytohemagglutinin-activated human PBMC cells assessed as inhibition of virus-induced cytopathic effect measured after 7 days by MTT assay; format: functional, organism-based; details: Human immunodeficiency virus 1, 10P, 168 h
[8] = system: Human immunodeficiency virus 1; test: Antiviral activity against multidrug-resistant HIV1-B infected in phytohemagglutinin-activated human PBMC cells assessed as inhibition of virus-induced cytopathic effect measured after 7 days by MTT assay; format: functional, organism-based; details: Human immunodeficiency virus 1, B, 168 h
[9] = system: Human immunodeficiency virus 1; test: Antiviral activity against multidrug-resistant HIV1-MM infected in phytohemagglutinin-activated human PBMC cells assessed as inhibition of virus-induced cytopathic effect measured after 7 days by MTT assay; format: functional, organism-based; details: Human immunodeficiency virus 1, MM, 168 h
[10] = system: Human immunodeficiency virus 1; test: Ratio of EC50 for antiviral activity against HIV1-JSL to EC50 for antiviral activity against wild type HIV1 ERS104pre; format: functional
[11] = system: Human immunodeficiency virus 1; test: Antiviral activity against wild type HIV1 ERS104pre infected in human PBMC cells assessed as inhibition of virus-induced cytopathic effect measured after 7 days by MTT assay; format: functional, organism-based; details: Human immunodeficiency virus 1, ERS104pre, 168 h
[12] = system: Human immunodeficiency virus 1; test: Antiviral activity against multidrug-resistant HIV1-C infected in phytohemagglutinin-activated human PBMC cells assessed as inhibition of virus-induced cytopathic effect measured after 7 days by MTT assay; format: functional, organism-based; details: Human immunodeficiency virus 1, C, 168 h
[13] = system: Human immunodeficiency virus 1; test: Antiviral activity against multidrug-resistant HIV1-JSL infected in phytohemagglutinin-activated human PBMC cells assessed as inhibition of virus-induced cytopathic effect measured after 7 days by MTT assay; format: functional, organism-based; details: Human immunodeficiency virus 1, JSL, 168 h
[14] = system: Human immunodeficiency virus 1; test: Ratio of EC50 for antiviral activity against HIV1-G to EC50 for antiviral activity against wild type HIV1 ERS104pre; format: functional
[15] = system: Human immunodeficiency virus 1; test: Ratio of EC50 for antiviral activity against HIV1-C to EC50 for antiviral activity against wild type HIV1 ERS104pre; format: functional
[16] = system: Human immunodeficiency virus 1; test: Ratio of EC50 for antiviral activity against HIV1-MM to EC50 for antiviral activity against wild type HIV1 ERS104pre; format: functional
[17] = system: Human immunodeficiency virus 1; test: Antiviral activity against darunavir-resistant HIV1 20P infected in phytohemagglutinin-activated human PBMC cells assessed as inhibition of virus-induced cytopathic effect measured after 7 days by MTT assay; format: functional, organism-based; details: Human immunodeficiency virus 1, 20P, 168 h
[18] = target: T1, Human immunodeficiency virus type 1 protease; test: Inhibition of recombinant HIV1 Protease
[19] = system: Human immunodeficiency virus 1; test: Antiviral activity against HIV1 LAI infected in human MT2 cells assessed as inhibition of virus-induced cytopathic effect by MTT assay; format: functional, organism-based; details: Human immunodeficiency virus 1, LAI
[20] = Apparent permeability in rat astrocytes/rat pericytes/monkey endothelial cells triple cell co-culture system incubated for 30 mins by spectrophotometric analysis; format: ADME, cell-based
[21] = system: Human immunodeficiency virus 1; test: Antiviral activity against HIV1 T20760 infected in human MT4 cells expressing LTR and EGFP assessed as inhibition of virus-induced cytopathic effect by fluorescence microscopic analysis; format: functional, organism-based; details: Human immunodeficiency virus 1, T20760, MT4
[22] = system: Human immunodeficiency virus 1; test: Antiviral activity against HIV1 T13717 infected in human MT4 cells expressing LTR and EGFP assessed as inhibition of virus-induced cytopathic effect by fluorescence microscopic analysis; format: functional, organism-based; details: Human immunodeficiency virus 1, T13717, MT4
[23] = system: Human immunodeficiency virus 1; test: Antiviral activity against HIV1 T13572 infected in human MT4 cells expressing LTR and EGFP assessed as inhibition of virus-induced cytopathic effect by fluorescence microscopic analysis; format: functional, organism-based; details: Human immunodeficiency virus 1, T13572, MT4
[24] = system: Human immunodeficiency virus 1; test: Antiviral activity against HIV1 T13436 infected in human MT4 cells expressing LTR and EGFP assessed as inhibition of virus-induced cytopathic effect by fluorescence microscopic analysis; format: functional, organism-based; details: Human immunodeficiency virus 1, T13436, MT4
[25] = system: Human immunodeficiency virus 1; test: Antiviral activity against HIV1 T13632 infected in human MT4 cells expressing LTR and EGFP assessed as inhibition of virus-induced cytopathic effect by fluorescence microscopic analysis; format: functional, organism-based; details: Human immunodeficiency virus 1, T13632, MT4
[26] = system: Human immunodeficiency virus 1; test: Antiviral activity against HIV1 T21055 infected in human MT4 cells expressing LTR and EGFP assessed as inhibition of virus-induced cytopathic effect by fluorescence microscopic analysis; format: functional, organism-based; details: Human immunodeficiency virus 1, T21055, MT4
[27] = system: Human immunodeficiency virus 1; test: Antiviral activity against HIV1 T21217 infected in human MT4 cells expressing LTR and EGFP assessed as inhibition of virus-induced cytopathic effect by fluorescence microscopic analysis; format: functional, organism-based; details: Human immunodeficiency virus 1, T21217, MT4
[28] = system: Human immunodeficiency virus 1; test: Antiviral activity against wild type HIV1 r13205 infected in human MT4 cells expressing LTR and EGFP assessed as inhibition of virus-induced cytopathic effect by fluorescence microscopic analysis; format: functional, organism-based; details: Human immunodeficiency virus 1, r13205, MT4

- Ki [1]: 40 nM
SMILES: COC(=O)[C@@H](NC(=O)[C@H](CC(C)C)NC(=O)[C@@H](NC(=O)CCCOc1ccc2ccc(OCCCC(=O)N[C@H](CCCCNC(=O)OCc3ccccc3)C(=O)Nc3cccn(CC(N)=O)c3=O)cc2c1)C(C)C)C(C)C

- Ki [1]: 19 nM
SMILES: O=C1C[C@@H](NC(=O)[C@H](OCc2cccc(Br)c2)[C@H](O)[C@@H](O)[C@@H](OCc2cccc(Br)c2)C(=O)N[C@H]2c3ccccc3C[C@H]2O)c2ccccc21

- Ki [1]: 11 nM
SMILES: COc1cccc2c1C(=O)C[C@H]2NC(=O)[C@H](OCc1cccc(Br)c1)[C@H](O)[C@@H](O)[C@@H](OCc1cccc(Br)c1)C(=O)N[C@H]1c2ccccc2C[C@H]1O

- Ki [1]: 801 nM
SMILES: CCC(C)N(CC(=O)N(CC(N)=O)Cc1ccc(N)cc1)C(=O)CN(CCSC)C(=O)CCCCCCCCCCCCCCC(=O)N(CC(N)=O)CC(=O)N(CC(=O)O)Cc1ccccc1 (stereo not drawn)

- Ki [1]: 1.39 nM
SMILES: COc1ccc(S(=O)(=O)N(CC(C)C)C[C@@H](O)[C@H](Cc2ccccc2)NC(=O)O[C@H]2CO[C@H]3C[C@@H]4OCC[C@@H]4[C@H]32)cc1

SMILES: O=C(Cc1cccc2ccccc12)Nc1ccccc1CN1C[C@H](O)[C@@H](O)CN(Cc2ccccc2NC(=O)Cc2cccc3ccccc23)S1(=O)=O
- Ki [2]: 20 nM

SMILES: COc1ccc(S(=O)(=O)N(CC(C)C)C[C@@H](O)[C@H](Cc2ccccc2)NC(=O)O[C@@H]2CO[C@@H]3O[C@H]4OCC[C@H]4[C@@H]32)cc1
- Ratio EC50 [3]: 2
- EC50 [4]: 656 nM
- Ratio EC50 [5]: 2
- EC50 [6]: 530 nM
- EC50 [7]: > 1000 nM
- EC50 [8]: 612 nM
- EC50 [9]: 787 nM
- Ratio EC50 [10]: >3
- EC50 [11]: 347 nM
- EC50 [12]: 514 nM
- EC50 [13]: > 1000 nM
- Ratio EC50 [14]: 2
- Ratio EC50 [15]: 1
- Ratio EC50 [16]: 2
- EC50 [17]: > 1000 nM

SMILES: CC(C)C[C@H](NC(=O)[C@@H](NC(=O)CCCCCCCCCCCCCCC(=O)N[C@@H](CC(N)=O)C(=O)N[C@@H](Cc1ccccc1)C(=O)O)[C@@H](C)O)C(=O)NCCc1ccc(N)cc1
- IC50 [18]: 650 nM

- Ki [1]: 0.2 nM
SMILES: COc1ccc(S(=O)(=O)N(CC(C)C)C[C@@H](O)[C@@H]2Cc3ccc(cc3)OC/C=C/CCc3c(O)cccc3C(=O)N2)cc1
- IC50 [19]: 210 nM

SMILES: Cc1c(O)cccc1C(=O)N[C@@H](CSc1ccccc1)[C@H](O)CN1C[C@H]2CCCC[C@H]2C[C@H]1C(=O)NC(C)(C)C
- EC50 [12]: 250 nM

SMILES: CC(C)C[C@H](NC(=O)[C@@H](NC(=O)CCCCCCCCCCCCCCC(=O)N[C@@H](CC(N)=O)C(=O)N[C@@H](Cc1ccccc1)C(=O)O)[C@@H](C)O)C(=O)NCCc1ccccc1 (I: Asn-Phe-OH / II: Thr-Leu-NHPhenethyl; linker I:N-II:N via C16 diacid)
- IC50 [18]: 5800 nM

- Ki [1]: 85 nM
SMILES: CCC(C)[C@H](NC(=O)[C@H](CCSC)NC(=O)CCCCCCCCCCCCCCC(=O)N[C@@H](CC(N)=O)C(=O)N[C@@H](Cc1ccccc1)C(=O)O)C(=O)N[C@@H](Cc1ccc(N)cc1)C(N)=O (stereo partly drawn) ({Phe-Asn-C16 diacid}-Met-[Ile(3ξ)]-[Phe(4-NH2)]-NH2)

- Papp at 0.5 h [20]: 100 ×10⁻⁶ cm/s
SMILES: Cn1c(=O)c2c(ncn2C)n(C)c1=O [CAFFEINE]

SMILES: Cc1cccc(C)c1OCC(=O)N[C@@H](Cc1ccccc1)[C@@H](O)C[C@H](Cc1ccccc1)NC(=O)[C@H](C(C)C)N1CCCNC1=O [LOPINAVIR]
- EC50 [21]: 112 nM
- EC50 [4]: > 160 nM
- EC50 [7]: > 1000 nM
- EC50 [8]: > 300 nM
- EC50 [22]: 1900 nM
- EC50 [23]: 511 nM
- EC50 [24]: 263 nM
- EC50 [25]: 1600 nM
- EC50 [11]: 7 nM
- EC50 [12]: > 436 nM
- EC50 [13]: > 700 nM
- EC50 [26]: 426 nM
- EC50 [27]: 198 nM
- EC50 [17]: > 1000 nM
- EC50 [28]: 28 nM
